The record followed here is patent US20030225001A1, “Preparation of an auricularia auricula polysaccharide and its use in mammals” (priority 2002, published 2003).

Each structure is given as a SMILES string.

The subject of this assay is serum lipids (TC, TG, HDL, TC/HDL ratio) in humans. The assay can be described thus: Multicenter double-blind random trial: effect of AP on serum total cholesterol and triglycerides in humans. The assay is classed as in vivo, human. The text has this:
A multicenter study, based on the Fujian Traditional Chinese Medicine Research Institute protocol, involved 476 patients between November 1994 and August 1996.
The total patient population was approximately 61% male, with the AP group being approximately 60% male and the control group approximately 64% male. Patients in each group were […] and averaged approximately 54-55 years of age. 164 patients had total cholesterol (TC) levels of 6.5-8.0 mmol/L, and 275 patients had triglycerides (TG) levels of 1.6-3.0 mmol/L. 131 patients had low high density lipoprotein (HDL) (<1.04 mmole/L for male, HDL<1.17 mmol/L for female). 201 patients had raised TC/HDL ratios (>5).
Patients with liver, renal and thyroid disease, as well as pregnant women and those who were on medications that could affect serum lipid readings, were excluded. Also excluded were patients who within the last year had had acute myocardial infarction, cerebral vascular diseases, major trauma and/or major surgery, as well as those with severe coronary or renal failure.
All medications were taken 2 times daily for 8 weeks. Although medications were administered by capsules, it should be understood that medications could be administered by tablets, liquids and/or pills as well.

Regarding `CC(C)OC(=O)C(C)(C)Oc1ccc(C(=O)c2ccc(Cl)cc2)cc1` [FF, Fenofibrate], the “Range of decreases (HDL level)” value (HDL, start vs end of 8 weeks) came to 0.18 ± 0.15 mmol/L. For the same compound, the “End HDL” value (after 8 weeks, AP 3 x 200 mg capsules or FF 100 mg tablet, 2 times daily) came to 1.06 ± 0.27 mmol/L. Besides, the “Start HDL” value (baseline, patients with low HDL) amounted to 0.88 ± 0.27 mmol/L. Moreover, the “End TC” value (total cholesterol after 8 weeks, AP 3 x 200 mg capsules or FF 100 mg tablet, 2 times daily) is recorded as 6.46 ± 1.33 mmol/L. Moreover, under “total cholesterol, baseline, patients with raised TC”, the “Start TC” value came to 7.81 ± 1.38 mmol/L. Besides, the “End TC (table: Effect of AP on triglyceride (TG) level)” value (triglyceride table, after 8 weeks, AP 3 x 200 mg capsules or FF 100 mg tablet, 2 times daily) was determined as 1.96 ± 1.10 mmol/L. For the same compound, under “triglyceride table, baseline, patients with raised TG”, the “Start TC (table: Effect of AP on triglyceride (TG) level)” value is 2.94 ± 1.38 mmol/L.
